Experimental data as given in US20240043435A1, “TYK-2 INHIBITOR” (BEIGENE, LTD., priority 2020, published 2024).

Key:
pSTAT5/GM-CSF = pSTAT5/GM-CSF cellular assay (JAK2 selectivity); assay type: cell-based; conditions: for Selectivity fold (TYK2/JAK2): pSTAT5/GM-CSF IC50 over pSTAT4/IL-12 IC50
[1] = target: T1, TYK2-JH2 (aa 575-869, in-house) protein (Homo sapiens, UniProt P29597); assay: TYK2-JH2 biochemical assay (HTRF probe displacement); assay type: binding; conditions: Biochemical assay; read-out: TYK2-JH2 IC50
T1 construct: TYK2-JH2 (aa 575-869, in-house) protein; made in house
In short: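 Recombinant TYK2-JH2 (0.2 nM) was pre-incubated 0.5 h at room temperature with compounds (10 doses, 5-fold dilution; 500× DMSO stocks from 500 uM) in 20 mM HEPES pH 7.5, 10 mM MgCl2, 0.005% BSA, 2 mM DTT, 0.015% Brij-35. Probe displacement was read by HTRF (ex337, em620/665 nm); IC50 from four-parameter logistic fit.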

[2] = test system: JAK2, TYK2/p-STAT4 (Tyr693) activated by IL-12 in NK-92 cell line; assay: IL-12-JAK2, TYK2/p-STAT4 (Tyr693) inhibition IC50 cellular assay; assay type: cell-based; conditions: NK92, Cellular assay; read-out: pSTAT4/IL-12 IC50
In short: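 NK-92 cells were starved overnight without IL-2 and preincubated 1 h at 37° C with compound (8 doses, 10000–0.61 nM, 4-fold, 0.2% DMSO). They were then stimulated with IL-12 (40 ng/ml final) for 30 min. Lysate p-STAT4 (Tyr693) was read by AlphaLISA SureFire; IC50 from four-parameter logistic fit.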

T1 sequence (P29597 575-869): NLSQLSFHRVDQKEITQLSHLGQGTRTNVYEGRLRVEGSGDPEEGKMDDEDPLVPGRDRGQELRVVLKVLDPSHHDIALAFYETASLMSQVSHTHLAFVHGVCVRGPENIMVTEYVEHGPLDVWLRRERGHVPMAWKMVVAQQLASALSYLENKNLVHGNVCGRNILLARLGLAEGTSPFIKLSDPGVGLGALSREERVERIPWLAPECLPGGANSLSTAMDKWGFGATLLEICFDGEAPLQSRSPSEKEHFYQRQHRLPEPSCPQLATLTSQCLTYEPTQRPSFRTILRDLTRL

Structure (SMILES)	IC50 (pSTAT5/GM-CSF)	Selectivity fold (TYK2/JAK2) (pSTAT5/GM-CSF)	IC50 [1]	IC50 [2]
CC(=O)Nc1cc(Nc2cc(Cl)cc(S(C)(=O)=O)n2)c(-c2ccn(C)n2)cn1 [Example J40, N-(4-((4-chloro-6-(methylsulfonyl)pyridin-2-yl)amino)-5-(1-methyl-1H-pyrazol-3-yl)pyridin-2-yl)acetamide]	> 10000 nM	>30674 fold	0.029 nM	0.326 nM
COC(C)c1cc(Nc2cc(NC(C)=O)ncc2-c2ccn(C)n2)nc(S(C)(=O)=O)c1 (centres unmarked) [Example J41, N-(4-((4-(1-methoxyethyl)-6-(methylsulfonyl)pyridin-2-yl)amino)-5-(1-methyl-1H-pyrazol-3-yl)pyridin-2-yl)acetamide]	> 10000 nM	>3355 fold	0.027 nM	2.98 nM
CC(=O)Nc1cc(Nc2cc(C(F)F)cc(S(C)(=O)=O)n2)c(-c2ccn(C)n2)cn1 [Example J42, N-(4-((4-(difluoromethyl)-6-(methylsulfonyl)pyridin-2-yl)amino)-5-(1-methyl-1H-pyrazol-3-yl)pyridin-2-yl)acetamide]	> 10000 nM	>12562 fold	0.05 nM	0.796 nM
CCOc1cc(Nc2cc(NC(C)=O)ncc2-c2ccn(C)n2)nc(S(C)(=O)=O)c1 [Example J43, N-(4-((4-ethoxy-6-(methylsulfonyl)pyridin-2-yl)amino)-5-(1-methyl-1H-pyrazol-3-yl)pyridin-2-yl)acetamide]	> 10000 nM	>13440 fold	0.025 nM	0.744 nM
CC(=O)Nc1cc(Nc2cc(OC3CCC3)cc(S(C)(=O)=O)n2)c(-c2ccn(C)n2)cn1 [Example J44, N-(4-((4-cyclobutoxy-6-(methylsulfonyl)pyridin-2-yl)amino)-5-(1-methyl-1H-pyrazol-3-yl)pyridin-2-yl)acetamide]	> 10000 nM	>27932 fold	0.022 nM	0.358 nM
CC(=O)Nc1cc(Nc2cc(OC3CCCC3)cc(S(C)(=O)=O)n2)c(-c2ccn(C)n2)cn1 [Example J45, N-(4-((4-(cyclopentyloxy)-6-(methylsulfonyl)pyridin-2-yl)amino)-5-(1-methyl-1H-pyrazol-3-yl)pyridin-2-yl)acetamide]	> 10000 nM	>25125 fold	0.028 nM	0.398 nM
CC(=O)Nc1cc(Nc2cc(OC3CCOC3)cc(S(C)(=O)=O)n2)c(-c2ccn(C)n2)cn1 (centres unmarked) [Example J46, N-(5-(1-methyl-1H-pyrazol-3-yl)-4-((6-(methylsulfonyl)-4-((tetrahydrofuran-3-yl)oxy)pyridin-2-yl)amino)pyridin-2-yl)acetamide]	> 10000 nM	>4255 fold	0.033 nM	2.35 nM
CC(=O)Nc1cc(Nc2cc(OC[C@@H](C)O)cc(S(C)(=O)=O)n2)c(-c2ccn(C)n2)cn1 [Example J47, (R)-N-(4-((4-(2-hydroxypropoxy)-6-(methylsulfonyl)pyridin-2-yl)amino)-5-(1-methyl-1H-pyrazol-3-yl)pyridin-2-yl)acetamide]	> 10000 nM	>2114 fold	0.037 nM	4.73 nM
CC(=O)Nc1cc(Nc2cc(OCC(O)CO)cc(S(C)(=O)=O)n2)c(-c2ccn(C)n2)cn1 (centres unmarked) [Example J48, N-(4-((4-(2,3-dihydroxypropoxy)-6-(methylsulfonyl)pyridin-2-yl)amino)-5-(1-methyl-1H-pyrazol-3-yl)pyridin-2-yl)acetamide]	> 10000 nM	>1421411 fold	0.035 nM	70.2 nM
COc1ccc(Nc2cc(NC(C)=O)ncc2-c2ccn(C)n2)nc1S(C)(=O)=O [Example J50, N-(4-((5-methoxy-6-(methylsulfonyl)pyridin-2-yl)amino)-5-(1-methyl-1H-pyrazol-3-yl)pyridin-2-yl)acetamide]	> 10000 nM	>361 fold	0.049 nM	27.7 nM
CC(=O)Nc1cc(Nc2ccc(C)c(S(C)(=O)=O)n2)c(-c2ccn(C)n2)cn1 [Example J51, N-(5-(1-methyl-1H-pyrazol-3-yl)-4-((5-methyl-6-(methylsulfonyl)pyridin-2-yl)amino)pyridin-2-yl)acetamide]	> 10000 nM	>6329 fold	0.043 nM	1.58 nM
CC(=O)Nc1cc(Nc2cc(C(F)(F)F)cc(S(C)(=O)=O)n2)c(-c2ccn(C)n2)cn1 [Example J52, N-(5-(1-methyl-1H-pyrazol-3-yl)-4-((6-(methylsulfonyl)-4-(trifluoromethyl)pyridin-2-yl)amino)pyridin-2-yl)acetamide]	> 10000 nM	>699 fold	0.021 nM	1.43 nM
CCS(=O)(=O)c1cc(OC(C)C)cc(Nc2cc(NC(C)=O)ncc2-c2ccn(C)n2)n1 [Example J53, N-(4-((6-(ethylsulfonyl)-4-isopropoxypyridin-2-yl)amino)-5-(1-methyl-1H-pyrazol-3-yl)pyridin-2-yl)acetamide]	> 10000 nM	>2881 fold	0.033 nM	3.47 nM
CC(=O)Nc1cc(Nc2ccc(F)c(S(C)(=O)=O)n2)c(-c2ccn(C)n2)cn1 [Example J54, N-(4-((5-fluoro-6-(methylsulfonyl)pyridin-2-yl)amino)-5-(1-methyl-1H-pyrazol-3-yl)pyridin-2-yl)acetamide]	> 10000 nM	>4926 fold	0.028 nM	2.03 nM
CC(=O)Nc1cc(Nc2cc(OC[C@H](C)O)cc(S(C)(=O)=O)c2)c(-c2ccn(C)n2)cn1 [Example J55, (S)-N-(4-((3-(2-hydroxypropoxy)-5-(methylsulfonyl)phenyl)amino)-5-(1-methyl-1H-pyrazol-3-yl)pyridin-2-yl)acetamide]	> 10000 nM	>878 fold	0.033 nM	11.4 nM
CC(=O)Nc1cc(Nc2cc(OCCO)cc(S(C)(=O)=O)c2)c(-c2ccn(C)n2)cn1 [Example J56, N-(4-((3-(2-hydroxyethoxy)-5-(methylsulfonyl)phenyl)amino)-5-(1-methyl-1H-pyrazol-3-yl)pyridin-2-yl)acetamide]	> 10000 nM	>332 fold	0.044 nM	30.1 nM
CC(=O)Nc1cc(Nc2cc(OC[C@@H](C)O)cc(S(C)(=O)=O)c2)c(-c2ccn(C)n2)cn1 [Example J57, (R)-N-(4-((3-(2-hydroxypropoxy)-5-(methylsulfonyl)phenyl)amino)-5-(1-methyl-1H-pyrazol-3-yl)pyridin-2-yl)acetamide]	> 10000 nM	>653 fold	0.045 nM	15.3 nM
CC(=O)Nc1cc(Nc2cc(OC(F)F)cc(S(C)(=O)=O)n2)c(-c2ccn(C)n2)cn1 [Example J58, N-(4-((4-(difluoromethoxy)-6-(methylsulfonyl)pyridin-2-yl)amino)-5-(1-methyl-1H-pyrazol-3-yl)pyridin-2-yl)acetamide]	> 10000 nM	>20120 fold	0.025 nM	0.497 nM
CC(=O)Nc1cc(Nc2cc(OCC(C)C)cc(S(C)(=O)=O)n2)c(-c2ccn(C)n2)cn1 [Example J59, N-(4-((4-isobutoxy-6-(methylsulfonyl)pyridin-2-yl)amino)-5-(1-methyl-1H-pyrazol-3-yl)pyridin-2-yl)acetamide]	> 10000 nM	>7633 fold	0.029 nM	1.31 nM
CC[C@H](C)Oc1cc(Nc2cc(NC(C)=O)ncc2-c2ccn(C)n2)nc(S(C)(=O)=O)c1 [Example J60, (S)-N-(4-((4-(sec-butoxy)-6-(methylsulfonyl)pyridin-2-yl)amino)-5-(1-methyl-1H-pyrazol-3-yl)pyridin-2-yl)acetamide]	> 10000 nM	>12547 fold	0.021 nM	0.797 nM
CC(=O)Nc1cc(Nc2cc(C3CCOCC3)cc(S(C)(=O)=O)n2)c(-c2ccn(C)n2)cn1 [Example J61, N-(5-(1-methyl-1H-pyrazol-3-yl)-4-((6-(methylsulfonyl)-4-(tetrahydro-2H-pyran-4-yl)pyridin-2-yl)amino)pyridin-2-yl)acetamide]	> 10000 nM	>7042 fold	0.019 nM	1.42 nM
CC(=O)Nc1cc(Nc2cc(OC(F)F)cc(S(C)(=O)=O)c2)c(-c2ccn(C)n2)cn1 [Example J62, N-(4-((3-(difluoromethoxy)-5-(methylsulfonyl)phenyl)amino)-5-(1-methyl-1H-pyrazol-3-yl)pyridin-2-yl)acetamide]	> 10000 nM	>2061 fold	0.037 nM	4.85 nM
CC(=O)Nc1cc(Nc2nc(S(C)(=O)=O)ccc2OC(F)F)c(-c2ccn(C)n2)cn1 [Example J63, N-(4-((3-(difluoromethoxy)-6-(methylsulfonyl)pyridin-2-yl)amino)-5-(1-methyl-1H-pyrazol-3-yl)pyridin-2-yl)acetamide]	> 10000 nM	>21645 fold	0.018 nM	0.462 nM
